This note sets out measurements from US20190321324A1, “QUATERNARY AMINE ANTIBIOTIC THERAPEUTICS” (BOARD OF REGENTS, THE UNIVERSITY OF TEXAS SYSTEM, priority 2016, published 2019).

Converted amounts (≈) assume the structure as drawn. Counter-ions that a name gives are not always drawn. Like-named read-outs stand apart in the source and are kept apart here. A value given as a limit tells only on which side of the number the result lay.

One assay relates to C. difficile. Description: C. difficile minimal bactericidal assay (MBC). Conditions: Clostridioides difficile, 20 h, 20 h at 37° C., anaerobic. In kind it is cell-based, Clostridium difficile. Here is the method:
Activity of Otilonium bromide was also tested using two strains of C. difficile, 43255 and 630 (MDR). The minimal bactericidal assay was performed using 5×10^5 C. difficile bacteria where incubated with vancomycin or OB at the indicated concentrations for 20 h at 37° C. in an anaerobic chamber. The total volume per well in BHIS medium was 100 μl and 5 μL was spotted on RCM medium and plates were incubated for 24 h. The MBC is identified as the concentration of compound the reduced cfu to single or no numbers.

The next assay relates to A. baumannii. The assay is described as follows: A. baumannii MIC of clinically used QACs. Format: cell-based, Acinetobacter baumannii. Conditions: for MIC: unit assumed; for Effect of ribosomal mutations on MIC (in words): BAC resistant mutants, S11 and L24 (Mutants 1 and 4); for Prevention of growth (in words): antibiotic resistant and susceptible A. baumannii. The method, then:
(§1) The antimicrobial activity of three QACs that have been approved for human use; Bretylium tosylate, Clofilium tosylate, and Otilonium bromide, were tested (FIG. 1). The length of the hydrocarbon tail on BAC is known to strongly influence its behavior. Clofilium tosylate and Otilonium bromide both have hydrocarbon tails that are hypothesized to allow cell envelope penetration. […] Similar activity was determine for these three compounds in S. aureus (Table 2)
BAC, Bretylium tosylate, Clofilium tosylate, and Otilonium bromide are all QACs but with different structures. […] Bretylium tosylate, Clofilium tosylate, and Otilonium bromide were tested on BAC resistant mutants representing mutations in ribosomal proteins S11, L23, L24 and the UTR of the ribosomal operon. […] The MIC to Otilonium bromide was not affected in these mutants.

For the next assay, the system named is S. aureus. Description: S. aureus MIC of clinically used QACs. In kind it is cell-based, Staphylococcus aureus. As to conditions: unit assumed. The method, then:
as §1

A further assay concerns A. baumannii lon mutant. The assay is described as follows: Sensitivity of A. baumannii lon mutant to Otilonium bromide treatment. Format: cell-based, Acinetobacter baumannii.

Regarding `CN[C@H](CC(C)C)C(=O)N[C@H]1C(=O)N[C@@H](CC(N)=O)C(=O)N[C@H]2C(=O)N[C@H]3C(=O)N[C@H](C(=O)N[C@H](C(=O)O)c4cc(O)cc(O)c4-c4cc3ccc4O)[C@H](O)c3ccc(c(Cl)c3)Oc3cc2cc(c3O[C@@H]2O[C@H](CO)[C@@H](O)[C@H](O)[C@H]2O[C@H]2C[C@](C)(N)[C@H](O)[C@H](C)O2)Oc2ccc(cc2Cl)[C@H]1O` [Vancomycin], the MBC was approximately 2 µg/mL (≈ 1.38 µM) against C. difficile (strain 630 (MDR)) and 1 µg/mL (≈ 0.69 µM) against C. difficile (strain 43255).
On to Clofilium tosylate, for which the MIC is 256 µg/mL in the assay on A. baumannii (BAC resistant Mutant 7 (19)); 256 µg/mL in the assay with A. baumannii (BAC resistant Mutant 8 (3)); 128 µg/mL with A. baumannii (strain 17978); 128 µg/mL in the assay with A. baumannii (strain AYE (MDR)); 32 µg/mL with S. aureus (strain MU50 (MDR)); 16 µg/mL in the assay with S. aureus (strain Newman). The “Effect of ribosomal mutations on MIC (in words)” value in the assay with A. baumannii is listed as “increased resistance”. In the assay with A. baumannii, the “Prevention of growth (in words)” value is on record as “prevent growth”.
As for `CC[N+](C)(C)Cc1ccccc1Br` [Bertylium tosylate, Bretylium tosylate], the MIC in the assay with A. baumannii (BAC resistant Mutant 1 (20)), in the assay with A. baumannii (BAC resistant Mutant 4 (23)), in the assay with A. baumannii (BAC resistant Mutant 7 (19)), in the assay on A. baumannii (BAC resistant Mutant 8 (3)), in the assay with A. baumannii (strain 17978) and with A. baumannii (strain AYE (MDR)) was more than 256 µg/mL throughout. Besides, the MIC in the assay with S. aureus (strain MU50 (MDR)) and in the assay on S. aureus (strain Newman) was more than 256 µg/mL in each case. The “Prevention of growth (in words)” value with A. baumannii is reported as “did not show activity”.
`CCCCCCCCOc1ccccc1C(=O)Nc1ccc(C(=O)OCC[N+](C)(CC)CC)cc1.[Br-]` [Otilonium bromide]: the “Sensitivity of lon mutant (in words)” value with A. baumannii lon mutant is reported as “highly sensitized”. Besides, the MIC with A. baumannii (BAC resistant Mutant 1 (20)), with A. baumannii (BAC resistant Mutant 4 (23)), with A. baumannii (BAC resistant Mutant 7 (19)), in the assay with A. baumannii (BAC resistant Mutant 8 (3)), in the assay on A. baumannii (strain 17978) and with A. baumannii (strain AYE (MDR)) was 16 µg/mL in each case. In addition, the MIC with S. aureus (strain MU50 (MDR)) worked out at 4 µg/mL; with S. aureus (strain Newman) it was 2 µg/mL. Also, in the assay on A. baumannii, the “Effect of ribosomal mutations on MIC (in words)” value is “not affected”. Further, the “Prevention of growth (in words)” value in the assay with A. baumannii is given as “prevent growth”. Also, the “MIC compared with BAC” value in the assay with A. baumannii (strain 17978) is recorded as “equivalent to that of BAC”. Moreover, the MBC turned out to be 2 µg/mL in the assay on C. difficile (strain 630 (MDR), read-out: MBC) and 1 µg/mL in the assay with C. difficile (strain 43255, read-out: MBC).

What is called MBC is the lowest tested concentration that kills the bacteria rather than only halting them. The term MIC denotes the lowest concentration found to suppress growth.
